These results are taken from ChEMBL document CHEMBL3407402, “Nintedanib: from discovery to the clinic” (J Med Chem, 2015).

Series [1] can be described thus: Oral bioavailability in Cynomolgus monkey at 40 mg/kg. The format is ADME, organism-based, Macaca fascicularis. To be noted: in vivo.
Series [2] in a line: Drug excretion in healthy male urine after 72 hrs. Type of series: ADME, tissue-based. The note with it: human, read-out: Drug excretion.
Series [3] in a line: Cmax in Rhesus monkey at 40 mg/kg, po. The format is ADME, organism-based, Macaca mulatta. To be noted: in vivo. Also noted: dose 40 mg/kg, route oral.
Series [4] is described as follows: Clearance in Rhesus monkey at 5 mg/kg, iv. The format is ADME, organism-based, Macaca mulatta. Further details: dose 5 mg/kg, route intravenous. The note with it: in vivo.
Series [5] in a line: Cmax in cynomolgus monkey at 40 mg/kg, po. The note with it: in vivo. Type of series: ADME, organism-based, Macaca fascicularis. Also noted: dose 40 mg/kg, route oral.
The nature of series [6]: Volume of distribution at steady state in Cynomolgus monkey at 5 mg/kg, iv. Further details: dose 5 mg/kg, route intravenous. To be noted: in vivo, read-out: Vdss. The format is ADME, organism-based, Macaca fascicularis.
A short description of series [7]: Half life in CD1 mouse at 50 mg/kg, po. The note with it: in vivo. Type of series: ADME, organism-based. Further details: dose 50 mg/kg, route oral.
The nature of series [8]: AUC in CD1 mouse at 50 mg/kg, po. The format is ADME, organism-based. Also noted: dose 50 mg/kg, route oral. To be noted: plasma.
Series [9] is described as follows: Drug excretion in healthy male urine/feces after 96 hrs. Type of series: ADME, tissue-based. To be noted: human, urine and faeces, read-out: Drug excretion.
A short description of series [10]: AUC in Wistar rat at 50 mg/kg, po. Type of series: ADME, organism-based. Further details: dose 50 mg/kg, route oral. To be noted: plasma.
Series [11] is described as follows: Oral bioavailability in Rhesus monkey at 40 mg/kg. The format is ADME, organism-based, Macaca mulatta. The note with it: in vivo.
Series [12] can be described thus: Mean residence time in CD1 mouse at 50 mg/kg, po. The format is ADME, organism-based. Further details: dose 50 mg/kg, route oral. To be noted: in vivo.
Series [13] is described as follows: Cmax in Rhesus monkey at 5 mg/kg, iv. The format is ADME, organism-based, Macaca mulatta. Further details: dose 5 mg/kg, route intravenous. To be noted: in vivo.
Series [14] can be described thus: Clearance in Wistar rat at 2 mg/kg, iv. The format is ADME, organism-based. Further details: dose 2 mg/kg, route intravenous. The note with it: in vivo.
The nature of series [15]: AUC in Rhesus monkey at 40 mg/kg, po. Type of series: ADME, organism-based, Macaca mulatta. Also noted: dose 40 mg/kg, route oral. The note with it: plasma.
Series [16] can be described thus: in vivo. The note with it: rhesus monkey, iv, 5 mg/kg.
Description: Half life in Rhesus monkey at 5 mg/kg, iv
A short description of series [17]: Cmax in CD1 mouse at 50 mg/kg, po. The format is ADME, organism-based. Also noted: dose 50 mg/kg, route oral. To be noted: in vivo.
The nature of series [18]: Cmax in Wistar rat at 50 mg/kg, po. Type of series: ADME, organism-based. Further details: dose 50 mg/kg, route oral. The note with it: in vivo.
Series [19] in a line: Drug excretion in healthy male via biliary system into feces over 120 hrs. The format is ADME, tissue-based. The note with it: human, faeces, read-out: Drug excretion.
The nature of series [20]: Mean residence time in Rhesus monkey at 5 mg/kg, iv. Type of series: ADME, organism-based, Macaca mulatta. Further details: dose 5 mg/kg, route intravenous. The note with it: in vivo.
The nature of series [21]: AUC in Wistar rat at 2 mg/kg, iv. Type of series: ADME, organism-based. Further details: dose 2 mg/kg, route intravenous. The note with it: plasma.
Series [22] concerns Rattus norvegicus. Put plainly: Half life in Wistar rat at 2 mg/kg, iv. The format is ADME, organism-based. Further details: dose 2 mg/kg, route intravenous. The note with it: in vivo.
Series [23] in a line: Half life in Cynomolgus monkey at 5 mg/kg, iv. Type of series: ADME, organism-based, Macaca fascicularis. The note with it: in vivo. Also noted: dose 5 mg/kg, route intravenous.
Series [24] can be described thus: Volume of distribution at steady state in Rhesus monkey at 5 mg/kg, iv. The note with it: in vivo, read-out: Vdss. Type of series: ADME, organism-based, Macaca mulatta. Further details: dose 5 mg/kg, route intravenous.
The nature of series [25]: Oral bioavailability in Wistar rat at 50 mg/kg. Type of series: ADME, organism-based. To be noted: in vivo.
Series [26] is described as follows: Mean residence time in Cynomolgus monkey at 5 mg/kg, iv. The format is ADME, organism-based, Macaca fascicularis. Also noted: dose 5 mg/kg, route intravenous. The note with it: in vivo.
Series [27] in a line: AUC in Rhesus monkey at 5 mg/kg, iv. The format is ADME, organism-based, Macaca mulatta. Also noted: dose 5 mg/kg, route intravenous. To be noted: plasma.
The nature of series [28]: Inhibition of VEGF-stimulated HSMEC cell proliferation. Type of series: functional. To be noted: Homo sapiens.
Series [29] deals with Rattus norvegicus. As to the kind of experiment: Mean residence time in Wistar rat at 2 mg/kg, iv. Type of series: ADME, organism-based. To be noted: in vivo. Also noted: dose 2 mg/kg, route intravenous.
A short description of series [30]: clinical. To be noted: male, human, in vivo.
Description: Terminal half life in healthy male
Series [31] in a line: Drug excretion in healthy male after 24 to 48 hrs. The format is ADME, organism-based. The note with it: human, in vivo, read-out: Drug excretion.
A short description of series [32]: AUC in Cynomolgus monkey at 5 mg/kg, iv. Type of series: ADME, organism-based, Macaca fascicularis. The note with it: plasma. Further details: dose 5 mg/kg, route intravenous.
The nature of series [33]: Cmax in Wistar rat at 2 mg/kg, iv. The format is ADME, organism-based. Also noted: dose 2 mg/kg, route intravenous. To be noted: in vivo.
Series [34] is described as follows: AUC in Cynomolgus monkey at 40 mg/kg, po. Type of series: ADME, organism-based, Macaca fascicularis. Further details: dose 40 mg/kg, route oral. The note with it: plasma.
Series [35] in a line: Cmax in Cynomolgus monkey at 5 mg/kg, iv. Also noted: dose 5 mg/kg, route intravenous. To be noted: in vivo. The format is ADME, organism-based, Macaca fascicularis.
The nature of series [36]: Antitumor activity against human H460 cells in xenograft model assessed as tumor growth inhibition ratio. Type of series: functional, NCI-H460.
A short description of series [37]: Clearance in Cynomolgus monkey at 5 mg/kg, iv. Further details: dose 5 mg/kg, route intravenous. The format is ADME, organism-based, Macaca fascicularis. To be noted: in vivo.

Each structure is given as a SMILES string.

Usually bioavailability stands for the share of a dose that reaches the circulation, judged against a reference dose that is usually intravenous. A word on the Cmax: it is the peak of the concentration-time curve. As usually defined, the clearance is a measure of how efficiently the substance is removed, as volume per time. The half-life is the time needed for the level to fall by half in the phase considered. A word on the AUC: it is the area under the concentration-time curve, a measure of exposure. What is called MRT is a mean duration of stay, worked out from the concentration-time curve. By EC50 is commonly meant the concentration at which the effect is half-maximal. By TGI is commonly meant the reduction of tumour growth relative to the control group. In the case of `CCS(=O)(=O)O.COC(=O)c1ccc2c(c1)NC(=O)/C2=C(\Nc1ccc(N(C)C(=O)CN2CCN(C)CC2)cc1)c1ccccc1` [NINTEDANIB ESYLATE], the bioavailability in series [1] was found to be 13.2%; in [11] it was 23.8%; in [25], 11.9%. For the same molecule, the dose excreted at 72 h in series [2] turned out to be 0.7%. Further, the Cmax in [3] stood at 311 ng/mL; in [5], 175 ng/mL; in series [13], 1090 ng/mL; in series [17] it was 547 ng/mL; in series [18] it was 105 ng/mL; in series [33] it was 124 ng/mL. Moreover, in series [35], the highest level (Cmax) was 1300 ng/mL. Moreover, the clearance is 30.2 mL/min/kg in series [4], 202 mL/min/kg in series [14] and 37.5 mL/min/kg in series [37]. In addition, the Vd in [6] turned out to be 8.64 L/kg; in [24], 10.4 L/kg. Further, the half-life in [7] is 5.15 h; in series [16], 7.09 h; in [23], 5.95 h; in [30], 13 h. Besides, the AUC in series [8] worked out at 2720 ng·h/mL; in series [10] it was 375 ng·h/mL; in series [15], 4440 ng·h/mL; in series [21], 181 ng·h/mL; in series [27], 2830 ng·h/mL; in [32] it was 2260 ng·h/mL. Besides, in [34], the AUC turned out to be 2390 ng·h/mL. For the same molecule, in series [9], the dose excreted at 96 h was found to be 92.4%. Further, the MRT in series [12] is 5.19 h; in series [20] it was 5.7 h; in series [26], 3.82 h; in series [29] it was 3.25 h. The dose excreted at 120 h in [19] came out at 93.4%. Besides, the t1/2 in series [22] is 3.95 h. In [28], this molecule came in with an EC50 below 10 nM. In addition, the dose excreted in series [31] stood at 56.3%. In addition, the TGI in series [36] amounted to 75%.

On to `CC(=O)O[C@@]12CO[C@@H]1C[C@H](O)[C@@]1(C)C(=O)[C@H](O)C3=C(C)[C@@H](OC(=O)[C@H](O)[C@@H](NC(=O)OC(C)(C)C)c4ccccc4)C[C@@](O)([C@@H](OC(=O)c4ccccc4)[C@H]21)C3(C)C.O.O.O` [DOCETAXEL], for which, in series [36], the TGI is 66%.
